Measurements published in ChEMBL document CHEMBL5344406, “1,2,3-Triazole-containing hybrids with potential antibacterial activity against ESKAPE pathogens” (2022).
In brackets after ≈: the same amount, converted by molar mass. One block for each molecule: values may come before it.

Columns and labels:
Assay type in all cases: functional
Escherichia coli [1] = assay: Antibacterial activity against Escherichia coli assessed as bacterial growth inhibition
Pseudomonas aeruginosa [2] = assay: Antibacterial activity against Pseudomonas aeruginosa assessed as bacterial growth inhibition
Staphylococcus aureus [3] = assay: Antibacterial activity against Staphylococcus aureus ATCC 25923 assessed as bacterial growth inhibition incubated for 18 to 20 hrs by broth microdilution method; settings: time 18-20 hrs
Escherichia coli [4] = assay: Antibacterial activity against Escherichia coli ATCC 25922 assessed as bacterial growth inhibition incubated for 18 to 20 hrs by broth microdilution method; settings: time 18-20 hrs
Acinetobacter baumannii = assay: Antibacterial activity against Acinetobacter baumannii ATCC 19606 assessed as bacterial growth inhibition incubated for 18 to 20 hrs by broth microdilution method; settings: time 18-20 hrs
Pseudomonas aeruginosa [5] = assay: Antibacterial activity against Pseudomonas aeruginosa ATCC 27853 assessed as bacterial growth inhibition incubated for 18 to 20 hrs by broth microdilution method; settings: time 18-20 hrs
Klebsiella pneumoniae = assay: Antibacterial activity against Klebsiella pneumoniae ATCC 29665 assessed as bacterial growth inhibition incubated for 18 to 20 hrs by broth microdilution method; settings: time 18-20 hrs
Staphylococcus aureus [6] = assay: Antibacterial activity against methicillin-resistant Staphylococcus aureus clinical isolate 2 assessed as bacterial growth inhibition incubated for 8 hrs by CLSI based broth microdilution method
Staphylococcus aureus [7] = assay: Antibacterial activity against methicillin-resistant Staphylococcus aureus clinical isolate 1 assessed as bacterial growth inhibition incubated for 8 hrs by CLSI based broth microdilution method
Staphylococcus aureus [8] = assay: Antibacterial activity against Staphylococcus aureus assessed as bacterial growth inhibition by serial dilution method
[9] = system: Staphylococcus epidermidis; assay: Antibacterial activity against Staphylococcus epidermidis assessed as bacterial growth inhibition by serial dilution method
Escherichia coli [10] = assay: Antibacterial activity against Escherichia coli assessed as bacterial growth inhibition by serial dilution method
Bacillus subtilis = assay: Antibacterial activity against Bacillus subtilis assessed as bacterial growth inhibition by serial dilution method
Pseudomonas aeruginosa [11] = assay: Antibacterial activity against Pseudomonas aeruginosa assessed as bacterial growth inhibition by serial dilution method
Staphylococcus aureus [12] = assay: Antibacterial activity against Staphylococcus aureus ATCC 29213 assessed as bacterial growth inhibition incubated for 24 hrs by broth microdilution method
Staphylococcus aureus [13] = assay: Antibacterial activity against Staphylococcus aureus clinical isolate 144 assessed as bacterial growth inhibition incubated for 24 hrs by broth microdilution method
Staphylococcus aureus [14] = assay: Antibacterial activity against Staphylococcus aureus ATCC 43300 assessed as bacterial growth inhibition incubated for 24 hrs by broth microdilution method
Staphylococcus aureus [15] = assay: Antibacterial activity against Staphylococcus aureus clinical isolate AD3 assessed as bacterial growth inhibition incubated for 24 hrs by broth microdilution method

Compound: O=C(Cn1cc(CN2CCN(c3cc4c(cc3F)c(=O)c(C(=O)O)cn4C3CC3)CC2)nn1)N[C@@H](Cc1ccccc1)C(=O)O
MIC (Staphylococcus aureus [3]): 0.25 µg/mL (≈ 0.405 µM) | MIC (Escherichia coli [4]): 0.25 µg/mL (≈ 0.405 µM) | MIC (Acinetobacter baumannii): 0.25 µg/mL (≈ 0.405 µM) | MIC (Pseudomonas aeruginosa [5]): 0.25 µg/mL (≈ 0.405 µM) | MIC (Klebsiella pneumoniae): 0.25 µg/mL (≈ 0.405 µM)

Compound: CC(C)C[C@@H](N)C(=O)N[C@H]1C(=O)N[C@@H](CC(N)=O)C(=O)N[C@H]2C(=O)N[C@H]3C(=O)N[C@H](C(=O)N[C@H](C(=O)O)c4cc(O)cc(O)c4-c4cc3ccc4O)[C@H](O)c3ccc(c(Cl)c3)Oc3cc2cc(c3O[C@@H]2O[C@H](CO)[C@@H](O)[C@H](O)[C@H]2O[C@H]2C[C@](C)(N)[C@H](O)[C@H](C)O2)Oc2ccc(cc2Cl)[C@H]1O
MIC (Staphylococcus aureus [6]): 1.56 µg/mL (≈ 1.09 µM) | MIC (Staphylococcus aureus [7]): 1.56 µg/mL (≈ 1.09 µM)

Compound: CC(C)C[C@H](C(=O)N[C@@H]1Cc2ccc(c(Cl)c2)Oc2cc3cc(c2O[C@@H]2O[C@H](CO)[C@@H](O)[C@H](O)[C@H]2O[C@H]2C[C@](C)(NCCCCCCCc4ccccc4)[C@H](O)[C@H](C)O2)Oc2ccc(cc2Cl)[C@@H](O)[C@@H]2NC(=O)[C@H](NC(=O)[C@@H]3NC(=O)[C@H](CC(=O)O)NC1=O)c1ccc(O)c(c1)-c1c(O)cc(O)cc1[C@H](C(=O)O)NC2=O)n1cc(COCCOCCOCc2cn([C@H](CC(C)C)C(=O)N[C@@H]3Cc4ccc(c(Cl)c4)Oc4cc5cc(c4O[C@@H]4O[C@H](CO)[C@@H](O)[C@H](O)[C@H]4O[C@H]4C[C@](C)(NCCCCCCCc6ccccc6)[C@H](O)[C@H](C)O4)Oc4ccc(cc4Cl)[C@@H](O)[C@@H]4NC(=O)[C@H](NC(=O)[C@@H]5NC(=O)[C@H](CC(=O)O)NC3=O)c3ccc(O)c(c3)-c3c(O)cc(O)cc3[C@H](C(=O)O)NC4=O)nn2)nn1
MIC (Staphylococcus aureus [6]): 6.25 µg/mL (≈ 1.83 µM) | MIC (Staphylococcus aureus [7]): 6.25 µg/mL (≈ 1.83 µM)

Compound: C#CCOCCOCCOCc1cn([C@H](CC(C)C)C(=O)N[C@@H]2Cc3ccc(c(Cl)c3)Oc3cc4cc(c3O[C@@H]3O[C@H](CO)[C@@H](O)[C@H](O)[C@H]3O[C@H]3C[C@](C)(NCCCCCCCc5ccccc5)[C@H](O)[C@H](C)O3)Oc3ccc(cc3Cl)[C@@H](O)[C@@H]3NC(=O)[C@H](NC(=O)[C@@H]4NC(=O)[C@H](CC(=O)O)NC2=O)c2ccc(O)c(c2)-c2c(O)cc(O)cc2[C@H](C(=O)O)NC3=O)nn1
MIC (Staphylococcus aureus [6]): 12.5 µg/mL (≈ 6.93 µM) | MIC (Staphylococcus aureus [7]): 25 µg/mL (≈ 13.9 µM)

Compound: CC(C)C[C@H](C(=O)N[C@@H]1Cc2ccc(c(Cl)c2)Oc2cc3cc(c2O[C@@H]2O[C@H](CO)[C@@H](O)[C@H](O)[C@H]2O[C@H]2C[C@](C)(NCCCCCCCc4ccccc4)[C@H](O)[C@H](C)O2)Oc2ccc(cc2Cl)[C@@H](O)[C@@H]2NC(=O)[C@H](NC(=O)[C@@H]3NC(=O)[C@H](CC(=O)O)NC1=O)c1ccc(O)c(c1)-c1c(O)cc(O)cc1[C@H](C(=O)O)NC2=O)n1cc(COCCCCCCOCc2cn([C@H](CC(C)C)C(=O)N[C@@H]3Cc4ccc(c(Cl)c4)Oc4cc5cc(c4O[C@@H]4O[C@H](CO)[C@@H](O)[C@H](O)[C@H]4O[C@H]4C[C@](C)(NCCCCCCCc6ccccc6)[C@H](O)[C@H](C)O4)Oc4ccc(cc4Cl)[C@@H](O)[C@@H]4NC(=O)[C@H](NC(=O)[C@@H]5NC(=O)[C@H](CC(=O)O)NC3=O)c3ccc(O)c(c3)-c3c(O)cc(O)cc3[C@H](C(=O)O)NC4=O)nn2)nn1
MIC (Staphylococcus aureus [6]): 6.25 µg/mL (≈ 1.82 µM) | MIC (Staphylococcus aureus [7]): 6.25 µg/mL (≈ 1.82 µM)

Compound: NC(=O)N/N=C/c1ccccc1OCc1cn(-c2ccc(Br)cc2)nn1
MIC (Staphylococcus aureus [8]): 25 µg/mL (≈ 60.2 µM) | MIC [9]: 25 µg/mL (≈ 60.2 µM) | MIC (Escherichia coli [10]): 25 µg/mL (≈ 60.2 µM) | MIC (Bacillus subtilis): 25 µg/mL (≈ 60.2 µM) | MIC (Pseudomonas aeruginosa [11]): 25 µg/mL (≈ 60.2 µM)

Compound: CC(C)C[C@H](C(=O)N[C@@H]1Cc2ccc(c(Cl)c2)Oc2cc3cc(c2O[C@@H]2O[C@H](CO)[C@@H](O)[C@H](O)[C@H]2O[C@H]2C[C@](C)(NCCCCCCCc4ccccc4)[C@H](O)[C@H](C)O2)Oc2ccc(cc2Cl)[C@@H](O)[C@@H]2NC(=O)[C@H](NC(=O)[C@@H]3NC(=O)[C@H](CC(=O)O)NC1=O)c1ccc(O)c(c1)-c1c(O)cc(O)cc1[C@H](C(=O)O)NC2=O)n1cc(COc2ccc(-c3ccc(OCc4cn([C@@H](CC(C)C)C(=O)N[C@H]5Cc6ccc(c(Cl)c6)Oc6cc7cc(c6O[C@H]6O[C@@H](CO)[C@H](O)[C@@H](O)[C@@H]6O[C@@H]6C[C@@](C)(NCCCCCCCc8ccccc8)[C@@H](O)[C@@H](C)O6)Oc6ccc(cc6Cl)[C@H](O)[C@H]6NC(=O)[C@@H](NC(=O)[C@H]7NC(=O)[C@@H](CC(=O)O)NC5=O)c5ccc(O)c(c5)-c5c(O)cc(O)cc5[C@@H](C(=O)O)NC6=O)nn4)cc3)cc2)nn1
MIC (Staphylococcus aureus [6]): 6.25 µg/mL (≈ 1.78 µM) | MIC (Staphylococcus aureus [7]): 6.25 µg/mL (≈ 1.78 µM)

Compound: COc1ccc(-n2cc(COc3ccccc3/C=N/NC(N)=O)nn2)cc1
MIC (Staphylococcus aureus [8]): 25 µg/mL (≈ 68.2 µM) | MIC [9]: 25 µg/mL (≈ 68.2 µM) | MIC (Escherichia coli [10]): 25 µg/mL (≈ 68.2 µM) | MIC (Bacillus subtilis): 25 µg/mL (≈ 68.2 µM) | MIC (Pseudomonas aeruginosa [11]): 25 µg/mL (≈ 68.2 µM)

Compound: C=C[C@]1(C)C[C@@H](OC(=O)Cn2cc(CN3CCN(c4ccccc4C)CC3)nn2)[C@@]2(C)[C@@H]3C(=O)CC[C@@]3(CC[C@@H]2C)[C@@H](C)[C@@H]1O
MIC (Staphylococcus aureus [12]): 0.5 µg/mL (≈ 0.809 µM) | MIC (Staphylococcus aureus [13]): 0.5 µg/mL (≈ 0.809 µM) | MIC (Staphylococcus aureus [14]): 0.5 µg/mL (≈ 0.809 µM) | MIC (Staphylococcus aureus [15]): 0.5 µg/mL (≈ 0.809 µM)

Compound: NC(=S)N/N=C/c1ccc(OCc2cn(Cc3ccc(Br)cc3)nn2)cc1
MIC (Staphylococcus aureus [8]): 6.25 µg/mL (≈ 14 µM) | MIC [9]: 6.25 µg/mL (≈ 14 µM) | MIC (Escherichia coli [10]): 6.25 µg/mL (≈ 14 µM) | MIC (Bacillus subtilis): 6.25 µg/mL (≈ 14 µM) | MIC (Pseudomonas aeruginosa [11]): 6.25 µg/mL (≈ 14 µM)

Further lines, results first:

MIC (Escherichia coli [1]): 6.25 µg/mL (≈ 11.3 µM) | MIC (Pseudomonas aeruginosa [2]): 6.25 µg/mL (≈ 11.3 µM)
Compound: O=C(/C=C/c1ccc(OCc2cn(Cc3ccc(Br)cc3)nn2)cc1)c1ccc(Br)cc1

MIC (Escherichia coli [1]): 6.25 µg/mL (≈ 11.3 µM) | MIC (Pseudomonas aeruginosa [2]): 6.25 µg/mL (≈ 11.3 µM)
Compound: O=C(/C=C/c1ccc(OCc2cn(Cc3ccccc3Br)nn2)cc1)c1ccc(Br)cc1

MIC (Escherichia coli [1]): 6.25 µg/mL (≈ 12 µM) | MIC (Pseudomonas aeruginosa [2]): 6.25 µg/mL (≈ 12 µM)
Compound: O=C(/C=C/c1ccc(OCc2cn(Cc3cccc(Br)c3)nn2)cc1)c1ccc([N+](=O)[O-])cc1

MIC (Escherichia coli [1]): 6.25 µg/mL (≈ 12 µM) | MIC (Pseudomonas aeruginosa [2]): 6.25 µg/mL (≈ 12 µM)
Compound: O=C(/C=C/c1ccc(OCc2cn(Cc3ccc(Br)cc3)nn2)cc1)c1ccc([N+](=O)[O-])cc1

MIC (Escherichia coli [1]): 1.56 µg/mL (≈ 2.99 µM) | MIC (Pseudomonas aeruginosa [2]): 1.56 µg/mL (≈ 2.99 µM)
Compound: Cc1cc(O)c(C(=O)/C=C/c2ccc(OCc3cn(Cc4ccc(Br)cc4)nn3)cc2)c(=O)o1
